# Measurements from US11014953B2, “Trigger-activatable metabolic sugar precursors for cancer-selective labeling and targeting” (priority 2015, dated 2021).
# Peptide text beside a SMILES is read from it. * marks the point of attachment. Cbz = O=C(OCc1ccccc1)*
# Legend:
# LS174T cells [1] = assay: Uptake mechanism of DBCO-Cy5 in E-S pretreated LS174T cells; type: cell-based
# Description: Uptake mechanism of DBCO-Cy5 or D-D in vitro. LS174T cells were seeded onto a tissue culture dish with cover glass bottom, and incubated with E-S (50 μM) for three days. After multiple washing with PBS, Lysotracker green in fresh medium was added and incubated for 1 h. Then DBCO-Cy5 was added and cells were further incubated for 1 h. Hoechst 33342 (10 μg/mL) and CellMask orange plasma membrane stain (1 μg/mL) were added to stain cell nucleus and cell membrane, respectively for 10 min. After removing the medium and washing with PBS, cells were further incubated at 37° C. At different time points (1 h, 3 h, 6 h, 12 h, and 24 h), cells were imaged under a fluorescence microscope to monitor the uptake of DBCO-Cy5. Cells without E-S pretreatment were used as control. For live cell imaging of D-D treated cells, CellMask deep red plasma membrane stain was used to stain cell membrane and lysosomes were not stained to avoid the interference over fluorescence signals of D-D.
# [2] = tested on: subcutaneous LS174T tumors; assay: In vivo tumor labeling after intratumoral injection of azido-sugars, DBCO-Cy5 i.v.; set-up: species or system athymic nude mice; conditions: for In vivo Cy5 fluorescence intensity of pretreated left tumors vs control right tumors: 24 h p.i. of i.v. DBCO-Cy5; for Ex vivo difference in Cy5 FI between treated tumors and control tumors: ex vivo imaging of tumors; for Western blot of tumors (azido-modified glycoproteins): intratumoral once daily for three days, tumors harvested 24 h p.i.; for Cy5 fluorescence of tumor sections (confocal imaging): tumor sections after ex vivo imaging
# Description: In vivo tumor labeling of Ac4ManAz, Ac3ManAzEt, and Ac3ManAzNB. LS174T tumor models were established on 6 week-old athymic nude mice by subcutaneous injection of LS174T colon cancer cells (1.5 million) in HBSS/matrigel (1/1, v/v) to both flanks. When the tumors grew to 5-6 mm, Ac4ManAz or Ac3ManAzEt or Ac3ManAzNB (25 mM, 20 μL) was injected into the left tumors once daily for three days while the same amount of PBS was injected to the right tumors as control (N=3 per group). At 24 h post the last injection, DBCO-Cy5 (5 mg/kg) was i.v. injected and its biodistribution was monitored via in vivo fluorescence imaging. Prior to imaging, nude mice were placed on the sample stage equipped with anesthesia input and output ports, and imaged by the Maestro In-Vivo Fluorescence Imaging System. The excitation filter of 575-605 nm was used. The tunable emission filter was automatically stepped in 10-nm increments from 630 to 850 nm with an exposure time of 50 ms for images taken at each wavelength. Collected images were analyzed by the Maestro software, which uses spectral unmixing algorithms to subtract autofluorescence from Cy5 signals. Tumors and major organs were harvested from mice at 24 h post injection of DBCO-Cy5. Ex vivo images were collected similarly using the Maestro system. Fluorescence intensity at selected ROIs was quantified using Maestro imaging software. All values were presented as means±standard deviation (n=3).
# Western blot analysis of tissues. Tumors and organs harvested from azido-sugar treated mice were transferred into glass tubes containing 2 mL of lysis buffer (1% SDS, 100 mM Tris HCl, pH 7.4), homogenized, and incubated at 4° C. for 30 min. The lysates were then centrifuged at 3000 rcf for 10 min to remove the insoluble debris. Total soluble protein concentrations were determined by BCA assay and adjusted to 5 mg/mL for each group. The rest of procedures were the same as the above-mentioned western blot analysis of cells.
# Confocal imaging of tumor tissue sections. After ex vivo imaging, tumors were directly frozen in O.C.T. compound and sectioned on a cryostat (Leica CM3050S) with a thickness of 6-8 μm. DAPI in PBS (2 μg/mL) was added onto the tissue-attaching microscope slides to stain cell nucleus. After 10 min, DAPI solution was removed and tissues were washed with PBS for three times. Coverslips were mounted on the microscope slides with the addition of ProLong Gold antifade reagent, and the prepared sample was stored in dark for confocal imaging.
# LS174T cells [3] = assay: Western blot analysis of LS174T cells treated with azido-sugars; type: cell-based
# Description: Western blot analysis of cells treated with azido-sugars. LS174T cells were seeded onto cell culture flasks (25 cm^2 growth area) at a density of 1×10^6 cells per plate in 5 mL of media. Different azido-sugars were added and incubated with cells for 72 h. The cells were washed with PBS twice and harvested from the flasks using a cell scraper. Cells were pelleted by centrifugation at 1000 rpm for 5 min and re-suspended in 200 μL of lysis buffer (1% SDS, 100 mM Tris.HCl, pH 7.4) containing 1 tablet protease inhibitor (EDTA-free). The lysate was incubated at 4° C. for 30 min, followed by centrifugation at 3000 rcf for 10 min to remove insoluble debris. The total concentration of soluble protein in each sample was determined by bicinchoninic acid (BCA) assay and adjusted to the same concentration. Then 20 μL of the lysate was taken out and incubated with phosphine-PEG3-biotin (2 μL, 5 mM in PBS) at 37° C. for 6 h. Loading buffer was added to each sample and samples were loaded onto 10% SDS-PAGE gel after heating at 95° C. After running the gel for 100 min, proteins were transferred to Hybond P membrane, followed by blocking of the membrane with 5% bovine serum albumin (BSA) in TBST (50 mM Tris.HCl, 150 mM NaCl, 0.1% Tween 20, pH 7.4) for 2 h. The membrane was then incubated with streptavidin-HRP (diluted 1:2000 in TBST) overnight at 4° C., rinsed with TBST for three times and developed by ECL Western Blotting Substrate. For fluorescent visualization of protein bands, 20 μL of cell lysate was directly incubated with DBCO-Cy3 solution for 3 h. After the gel running and membrane transfer, protein bands were visualized using an Image Quant LAS 4010 system with a Cy3/Cy3 (excitation/emission) channel.
# [4] = tested on: LS174T colon cancer cells; assay: Metabolic labeling of LS174T cells with azido-sugars, azides detected by DBCO-Cy5 (confocal imaging, flow cytometry); type: cell-based; conditions: for Labeling efficiency of E-S on co-incubation with inhibitor: LS174T cells co-incubated with E-S and inhibitor
# Description: General procedures for confocal imaging of azido-sugar labeled cells. Cells were seeded onto coverslips in a 6-well plate at a cell density of 40 k/well. Ac4ManAz or Ac3ManAz derivatives were added with a final concentration of 50 μM and the cells were incubated at 37° C. for 72 h. The medium was removed and washed with PBS for three times. DBCO-Cy5 (50 μM) in Opti-MEM was then added and the cells were incubated for another 1 h. Then the medium was removed and the cells were washed with PBS for three times. 4% paraformaldehyde (PFA) solution was added to fix the cells for 10 min, followed by staining of cell nucleus with DAPI (2 μg/mL) for 10 min. The coverslips were mounted on microscope slides with the addition of ProLong Gold antifade reagent, and the prepared sample was stored in dark for imaging.
# General procedures for flow cytometry analysis of azido-sugar labeled cells. Cells were seeded onto coverslips in a 6-well plate at a cell density of 40 k/well. Ac4ManAz or Ac3ManAz derivatives were added and incubated with cells for 72 h. After removal of medium and multiple washing steps, DBCO-Cy5 in opti-MEM was added and incubated with cells at 37° C. for 1 h. The opti-MEM was then removed and cells were washed with PBS for three times. Cells were lifted by incubating with trypsin solution (1 mL) at 37° C. for 3 min and transferred to test tubes with addition of 4% PFA solution (0.5 mL). Twenty thousand cells per sample were analyzed by flow cytometry and data analysis was performed on the FCS Express software.
# Ac3ManAzNB mediated controlled cell labeling. LS174T cells were seeded onto coverslips in a 6-well plate at a cell density of 40 k/well. Ac3ManAzNB with a final concentration of 50 μM was added. […] Cells without UV irradiation were continuously incubated for 72 h. Cell samples for confocal imaging and flow cytometry were then prepared following the above-mentioned procedures.
# Ac3ManAzHQ mediated controlled cell labeling. LS174T colon cancer cells or Caco-2 colon cancer cells or human fibroblast IMR90 cells were seeded onto coverslips in a 6-well plate at a cell density of 40 k/well and allowed to attach for overnight. Ac3ManAzHQ with a final concentration of 50 μM was added, followed by the addition of curcumin with a final concentration of 50 μM. Cells treated with PBS or Ac3ManAzHQ only were used as control. After 72-h incubation, cell samples for confocal imaging and flow cytometry were prepared following the above-mentioned procedures.
# (§1) E-S mediated controlled cell labeling in vitro. LS174T colon cancer cells or human fibroblast IMR90 cells were seeded onto coverslips in a 6-well plate at a cell density of 40 k/well. E-S with a final concentration of 50 μM was added, followed by the addition of either TSA (1 μM) or Z-FY-CHO (50 μM). Cells treated with PBS or E-S only were used as the control. After 72-h incubation, the medium was removed and cell samples for confocal imaging and GE-Analyzer measurements were prepared similarly to above-mentioned procedures.
# [5] = tested on: cellular HDAC/CTSL activity; assay: Inhibitory effect of TSA and Z-FY-CHO on cellular HDAC/CTSL activity (Naph-Lys reporter); type: cell-based
# Description: Detection of cellular HDAC/CTSL activity. Cells were seeded in a 24-well plate at a cell density of 8 k/well, and were allowed to attach for overnight. Naph-Lys (50 μM) in OptiMEM was added and incubated with cells for different time (30 min, 1 h, 2 h, and 4 h). After removal of the OptiMEM and washing with PBS twice, cells were fixed with 4% PFA for 10 min and stained with DAPI (2 ng/mL) for 10 min. Average fluorescence intensity of cells were measured on a GE-Analyzer using DAPI and FITC channels. The DAPI channel was used for determining cell number per well. The FITC channel was used to determine the total fluorescence intensity of released Naph-NH2 per well. Data were presented with the average fluorescence intensity per cell.
# Inhibitory effect of TSA and Z-FY-CHO on cellular HDAC/CTSL activity. TSA and Z-FY-CHO are known to be the inhibitor of HDAC and CTSL, respectively. To study their inhibitory effect, cells were seeded in a 24-well plate at a cell density of 8 k/well, and were allowed to attach for overnight. Cells were then divided into 4 groups: group 1 cells were added Naph-Lys (50 μM); group 2 cells were added Naph-Lys (50 μM)+TSA (1 μM); group 3 cells were added Naph-Lys (50 μM)+Z-FY-CHO (20 μM); group 4 cells were added PBS as negative control. […] Average fluorescence intensity of cells were measured on a GE-Analyzer using DAPI and FITC channels.
# [6] = tested on: MDA-MB-231 breast cancer cells; assay: E-S mediated in vitro labeling of MDA-MB-231 cells; type: cell-based
# Description: as §1, with “in vitro” for “controlled cell”, “of MDA-MB-231 cells. MDA-MB-231 breast” for “in vitro. LS174T colon”, “cancer” for “cancer cells or human fibroblast IMR90”, “as” for “as the”, “IN cell Analyzer” for “GE-Analyzer”, “following the” for “similarly to”
compound,measurement,setting,value
CC1(C)C(/C=C/C=C/C=C2/N(CCCCCC(=O)NCCC(=O)N3Cc4ccccc4C#Cc4ccccc43)c3ccc(S(=O)(=O)O)cc3C2(C)C)=[N+](CCCS(=O)(=O)[O-])c2ccc(S(=O)(=O)O)cc21 [DBCO-Cy5],Further incubation time at which DBCO-Cy5 completely disappeared from the cell membrane,LS174T cells [1]; E-S pretreated LS174T cells,12 h
same,Cy5 signal in control cells without E-S pretreatment (passive uptake),"LS174T cells [1]; LS174T, DBCO-Cy5 1 h",Negligible Cy5 signal
CC(=O)OC[C@H]1OC(OCc2ccccc2[N+](=O)[O-])[C@@H](NC(=O)CN=[N+]=[N-])[C@@H](OC(C)=O)[C@@H]1OC(C)=O (stereo partly drawn) [Ac3ManAzNB],In vivo Cy5 fluorescence intensity of pretreated left tumors vs control right tumors,[2],negligible Cy5 retention enhancement
same,Ex vivo difference in Cy5 FI between treated tumors and control tumors,[2],no significant difference
same,Western blot of tumors (azido-modified glycoproteins),[2],the same endogenous protein bands as PBS group
same,Cy5 fluorescence of tumor sections (confocal imaging),[2],negligible Cy5 fluorescence
same,Western blot of azido-glycoproteins,LS174T cells [3]; with UV,a series of protein bands
same,Western blot of azido-glycoproteins,LS174T cells [3]; without UV,the same two endogenous biotinylated protein bands as PBS group
same,Cy5 fluorescence on the cell surface (CLSM),"[4]; LS174T cells, three days, with UV irradiation (10 min, 10 mW/cm^2)",strong Cy5 fluorescence
same,Cy5 fluorescence on the cell surface (CLSM),"[4]; LS174T cells, three days, without UV irradiation",negligible Cy5 fluorescence on cell surface
same,Cy5 fluorescence by flow cytometry,"[4]; LS174T cells, with UV irradiation compared with Ac3ManAzNB only",significantly enhanced Cy5 fluorescence
COc1cc(/C=C/C(=O)CC(=O)/C=C/c2ccc(O)c(OC)c2)ccc1O [curcumin],Labeling efficiency of Ac3ManAzHQ on co-incubation with NQO1 inhibitor,"[4]; LS174T cells, compared with Ac3ManAzHQ only",significant reduction of labeling efficiency
"CC(/C=C/C(=O)NO)=C\[C@@H](C)C(=O)c1ccc(N(C)C)cc1 [TSA, Trichostatin A]",Turn-on fluorescence intensity of Naph-Lys in the presence of the inhibitor,[5],greatly decreased
same,Labeling efficiency of E-S in the presence of inhibitor,[6],significantly decreased the labeling efficiency
same,Labeling efficiency of E-S on co-incubation with inhibitor,[4],greatly reduced
CCOC1O[C@H](COC(C)=O)[C@@H](OC(C)=O)[C@H](OC(C)=O)[C@@H]1NC(=O)CN=[N+]=[N-] (stereo partly drawn) [Ac3ManAzEt],In vivo Cy5 fluorescence intensity of pretreated left tumors vs control right tumors,[2],negligible Cy5 retention enhancement
same,Ex vivo difference in Cy5 FI between treated tumors and control tumors,[2],no significant difference
same,Western blot of tumors (azido-modified glycoproteins),[2],the same endogenous protein bands as PBS group
same,Cy5 fluorescence of tumor sections (confocal imaging),[2],negligible Cy5 fluorescence
same,Western blot of azido-glycoproteins (biotinylated with phosphine-PEG3-biotin),LS174T cells [3]; 72 h,only two endogenous biotinylated proteins
same,Cy5 fluorescence on the cell surface (CLSM),"[4]; LS174T cells, 50 μM azido-sugar three days (72 h), then DBCO-Cy5 1 h",negligible Cy5 fluorescence on the cell surface
O=C[C@H](Cc1ccc(O)cc1)NC(=O)[C@H](Cc1ccccc1)NC(=O)OCc1ccccc1 [Z-FY-CHO] (Cbz-Phe-Tyr-aldehyde),Turn-on fluorescence intensity of Naph-Lys in the presence of the inhibitor,[5],greatly decreased
same,Labeling efficiency of E-S in the presence of inhibitor,[6],significantly decreased the labeling efficiency
same,Labeling efficiency of E-S on co-incubation with inhibitor,[4],greatly reduced
